Patent US20040242886A1, “Monocyclic diazodioxide based Bcl-2 protein antagonists related applications” (priority 2003, published 2004)
Where two headings read alike, the source gives them in different places.

Columns and labels:
[1] = system: cell; conditions: cited from earlier work
[2] = system: Bcl-2 and Bcl XL; conditions: literature value, cited from earlier work
[3] = system: A549 human lung cells expressing low Bcl-2 and high Bcl-XL levels; test: Acute cytotoxicity (apoptotic activity), Alamar Blue viability, A549 cells; assay type: cell-based; conditions: Homo sapiens, A549, 4 h; read-out: LC 50 (μM) A549
Protocol: (§1) The biological activity of the compounds provided herein were assessed in cellular system by the method similar to the one described by Amundson et al. (Amundson, S. A. et al, Cancer Research 2000, 60, 6101-6110), which is incorporated herein by reference in its entirety. The compounds were tested for acute cytotoxicity (apoptotic activity) using two human cancer cell lines expressing high levels of either Bcl-2 or BCl-XL. HL60, human leukemic cells expressing high Bcl-2 and low BCl-XL levels, and A549 human lung cells expressing low Bcl-2 and high BCl-XL levels, were incubated with the compounds at concentrations between 0.5 and 1000 μg/mL for 4 hours at 37° C., 5% CO2. The number of viable cells were measured by mitochondrial transformation of Alamar Blue to a fluorescent dye. LC50 values for each test compound and controls are provided in the individual examples that follow.
(§2) The compounds provided herein were tested for acute cytoxicity (apoptotic activity) using two human cancer cell lines expressing high levels of either Bcl-2 or BCl-XL. HL-60 cells expressing high Bcl-2 and low Bcl-XL levels, and A549 human lung cells expressing low Bcl-2 and high Bcl-XL levels were incubated with the compounds provided herein at concentrations between 0.5 and 1000 μg/mL for 4 hours at 37° C., 5% CO2. The number of viable cells were measured by mitochondrial transformation of Alamar Blue to a fluorescent dye. As negative controls, the compounds were tested against the cell lines with low levels of Bcl-2 expression, viz., MDA-453 cells. LC50 values for each compound and controls were determined.

[4] = system: HL60, human leukemic cells expressing high Bcl-2 and low Bcl-XL levels; test: Acute cytotoxicity (apoptotic activity), Alamar Blue viability, HL-60 cells; assay type: cell-based; conditions: Homo sapiens, HL-60, 4 h; read-out: LC 50 (μM) HL-60
Protocol: as §1, §2

Row | SMILES | CC50 [3] | CC50 [4] | other results
1 | Cc1cc2c(C(C)C)c(O)c(O)c(C=O)c2c(O)c1-c1c(C)cc2c(C(C)C)c(O)c(O)c(C=O)c2c1O [compound 1] | – | – | CC50 [1]: 1.5 µM
2 | CCCC[C@H]1C(=O)O[C@H](C)[C@H](NC(=O)c2cccc(NC=O)c2O)C(=O)O[C@@H](C)[C@@H]1OC(=O)CC(C)C [compound 2] | – | – | CC50 [1]: 1.2 µM
3 | O=C(Nc1cc(S(=O)(=O)c2ccc(Cl)cc2)ccc1Cl)c1cc(Cl)cc(I)c1O [compound 6, reference compound] | > 200 µM | < 50 µM | IC50 ([2]; protein not specified): 3.3 µM; CC50 ([1]; read-out: LC50 (cell), cell line not specified, literature value): ~30 µM
4 | CC(C)Cc1cc(-c2ccc(-c3ccc(OCC(=O)O)c(CC(C)C)c3)c(Cc3cccc4ccccc34)c2)ccc1CCC(=O)O [compound 7] | – | – | IC50 ([2]; Bcl-2 antagonist): 0.114 µM
5 | Nc1ccc(S(=O)(=O)c2ccc(S(=O)(=O)C3CCCCC3)[n+]([O-])n2)cc1 [compound 55] | > 200 µM | < 50 µM | –
6 | CC(=O)NCCS(=O)(=O)c1ccc(S(=O)(=O)C2CCCCC2)[n+]([O-])n1 [compound 56] | > 200 µM | > 200 µM | –
7 | O=C(O)c1ccc(S(=O)(=O)c2ccc(S(=O)(=O)C3CCCCC3)[n+]([O-])n2)cc1 [compound 57] | > 200 µM | > 200 µM | –
8 | CS(=O)(=O)Nc1ccc(S(=O)(=O)c2ccc(S(=O)(=O)C3CCCCC3)[n+]([O-])n2)cc1 [compound 58] | > 200 µM | > 200 µM | –
9 | COC(=O)c1ccc(S(=O)(=O)c2ccc(S(=O)(=O)C3CCCCC3)[n+]([O-])n2)cc1 [compound 59] | > 200 µM | < 50 µM | –
10 | O=S(=O)(c1ccncc1)c1ccc(S(=O)(=O)C2CCCCC2)[n+]([O-])n1 [compound 60] | > 200 µM | 50 to 200 µM | –
11 | O=S(=O)(c1ccc(-c2ccccc2)n[n+]1[O-])C1CCCCC1 [compound 61] | > 200 µM | > 200 µM | –
